Test results from ChEMBL document CHEMBL1151887 (Bioorg Med Chem, 2009).

Columns and labels:
[1] = biological target: T1, Adenosine receptor A3 (Homo sapiens, UniProt P0DMS8); experiment: Displacement of [125I]I-AB-MECA from human recombinant adenosine A3 receptor expressed in CHO cells by liquid scintillation counting
T1 sequence (P0DMS8 whole entry): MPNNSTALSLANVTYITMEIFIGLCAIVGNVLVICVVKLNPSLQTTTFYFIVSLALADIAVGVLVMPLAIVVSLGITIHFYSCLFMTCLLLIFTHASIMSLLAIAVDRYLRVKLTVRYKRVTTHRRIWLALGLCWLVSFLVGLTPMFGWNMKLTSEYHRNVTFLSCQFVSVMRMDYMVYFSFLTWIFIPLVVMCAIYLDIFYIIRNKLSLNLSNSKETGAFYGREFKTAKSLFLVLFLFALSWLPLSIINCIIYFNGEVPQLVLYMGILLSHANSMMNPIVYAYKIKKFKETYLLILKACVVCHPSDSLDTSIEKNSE

[2] = biological target: T2, Adenosine receptor A1 (Homo sapiens) (UniProt P30542); experiment: Displacement of [3H]NECA from human recombinant adenosine A1 receptor expressed in CHO cells at 10 uM by liquid scintillation counting; assay type: cell-based
T2 sequence (whole entry): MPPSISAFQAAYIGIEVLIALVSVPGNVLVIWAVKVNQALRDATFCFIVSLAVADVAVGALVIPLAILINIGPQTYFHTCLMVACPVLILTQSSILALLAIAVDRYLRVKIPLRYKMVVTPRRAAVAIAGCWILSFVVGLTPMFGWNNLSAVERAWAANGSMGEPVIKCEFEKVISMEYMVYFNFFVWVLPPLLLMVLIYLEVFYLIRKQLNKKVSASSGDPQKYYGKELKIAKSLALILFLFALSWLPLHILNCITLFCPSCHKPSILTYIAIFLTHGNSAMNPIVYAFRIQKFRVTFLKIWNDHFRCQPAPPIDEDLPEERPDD

[3] = biological target: T3, Adenosine receptor A2a (Homo sapiens, UniProt P29274); experiment: Displacement of [3H]CGS21680 from human recombinant adenosine A2a receptor expressed in HEK293 cells by liquid scintillation counting; assay type: cell-based
[4] = biological target: T3, Adenosine receptor A2a; experiment: Displacement of [3H]CGS21680 from human recombinant adenosine A2a receptor expressed in HEK293 cells at 10 uM by liquid scintillation counting; assay type: cell-based
[5] = biological target: T4, Adenosine receptor A3 (Rattus norvegicus, UniProt P28647); experiment: Binding affinity to rat adenosine A3 receptor
T4 sequence (P28647 whole entry): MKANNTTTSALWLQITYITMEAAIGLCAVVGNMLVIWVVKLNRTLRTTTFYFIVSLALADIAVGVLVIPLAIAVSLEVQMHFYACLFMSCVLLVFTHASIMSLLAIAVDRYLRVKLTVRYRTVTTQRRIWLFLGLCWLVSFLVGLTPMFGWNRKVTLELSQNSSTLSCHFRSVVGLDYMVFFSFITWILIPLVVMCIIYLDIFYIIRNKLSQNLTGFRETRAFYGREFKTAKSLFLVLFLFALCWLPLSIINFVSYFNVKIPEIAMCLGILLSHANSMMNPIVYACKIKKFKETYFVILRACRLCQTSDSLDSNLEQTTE

T3 sequence (P29274 whole entry): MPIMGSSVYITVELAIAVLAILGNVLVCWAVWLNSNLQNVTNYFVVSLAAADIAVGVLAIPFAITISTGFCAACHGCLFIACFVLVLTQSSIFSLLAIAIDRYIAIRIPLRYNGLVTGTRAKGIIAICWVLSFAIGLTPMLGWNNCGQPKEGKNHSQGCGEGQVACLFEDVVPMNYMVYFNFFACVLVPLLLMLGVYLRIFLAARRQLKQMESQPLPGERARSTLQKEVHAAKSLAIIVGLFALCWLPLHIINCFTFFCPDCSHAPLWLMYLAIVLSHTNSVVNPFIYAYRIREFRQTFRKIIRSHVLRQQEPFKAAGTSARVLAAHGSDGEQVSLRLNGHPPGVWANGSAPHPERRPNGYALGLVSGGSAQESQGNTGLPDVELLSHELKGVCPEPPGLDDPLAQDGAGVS

| SMILES | Ki [1] [nM] | inhibition [2] [%] | Ki [3] [nM] | inhibition [4] [%] | Ki [5] [nM] |
| --- | --- | --- | --- | --- | --- |
| O[C@@H]1[C@H](O)CO[C@H]1n1cnc2c(NCc3cccc(F)c3)ncnc21 | 537 | 36 | 6560 |  |  |
| O[C@@H]1[C@H](O)CO[C@H]1n1cnc2c(NCc3cccc(Br)c3)ncnc21 | 59 |  | 1400 |  |  |
| O[C@@H]1[C@H](O)CO[C@H]1n1cnc2c(NCc3cccc(F)c3)nc(Cl)nc21 | 284 | 43 |  | 42 |  |
| O[C@@H]1[C@H](O)CO[C@H]1n1cnc2c(NCc3cccc(Cl)c3)nc(Cl)nc21 | 75 |  | 3630 |  |  |
| O[C@@H]1[C@H](O)CO[C@H]1n1cnc2c(NCc3cccc(Br)c3)nc(Cl)nc21 |  |  |  | 30 | 82.8 |
| O[C@@H]1[C@H](O)CO[C@H]1n1cnc2c(NCc3cccc(I)c3)nc(Cl)nc21 |  |  |  | 43 |  |
| CNc1ncnc2c1ncn2[C@@H]1OC[C@@H](O)[C@H]1O | 70.1 | 44 |  | 25 |  |
| O[C@@H]1[C@H](O)CO[C@H]1n1cnc2c(NCc3cccc(I)c3)ncnc21 | 90.2 |  | 997 |  |  |
| O[C@@H]1[C@H](O)CO[C@H]1n1cnc2c(NCc3cccc(Cl)c3)ncnc21 | 76.1 |  | 3410 |  |  |
| CNc1nc(Cl)nc2c1ncn2[C@@H]1OC[C@@H](O)[C@H]1O | 37.5 | 49 |  | 15 |  |
